Experimental data: patent EP0297946A2, “Cytochalasin purification methods and compositions” (priority 1987, dated 1989)
Values joined by “and” are separate entries in the source; they are usually repeats but may differ in a detail not shown here. Identical values can stand only once. Like-named read-outs stand apart in the source and are kept apart here.

Columns and labels:
[1] = Maximum tolerated single bolus dose (MTD) of CB by vehicle and route of administration; assay type: in vivo, CD2F₁ mice; conditions: for MTD: mouse, in vivo
Protocol: (§1) The maximum tolerated single bolus dose (MTD) of CB (LD₅₋₁₀) was estimated as a function of vehicle and route of administration, in M109 tumor-bearing, B16F10 tumor-bearing, and normal mice (Table 2). Both CD2F₁ and B6D2F₁ mice were tested. […] In tissue distribution studies of CB in vivo, 50 mg/kg (1000 ug/20 g mouse) was injected intraperitoneally and the distribution determined at time intervals thereafter as explained in Example 13. […] It is cleared from the spleen and pancreas by 12 hours, but persists in liver for 72 hours. Some CB is metabolized within the first few minutes after injection, but the remaining 35% persists in liver for up to 72 hours. Sustained release formulations such as liposomes would maintain active CB in tissues.
The vehicles used in the invention may be selected with regard to the intended route of administration and standard pharmaceutical practice. The preparations can be injected parenterally, for example, intra-arterially or intravenously. The preparations may also be administered via oral, subcutaneous, intraperitoneal, or intramuscular routes. For parenteral administration, they can be used, for example, in the form of a sterile pyrogen-free aqueous solution which may contain other solutes.
For example, in the present studies, 0.85% (wt/v) sterile sodium chloride solution, sterile pyrogen-free CM-cellulose (1%)Tween-20 (2%), 10% Intralipid (Cutter Laboratories), or 48% ethanol/sodium chloride (v/v) solution were used as vehicles. Liposomes can alternatively be used as a vehicle. In such cases, the CB can be entrapped by any of the methods known in the art for forming liposomes, mentioned hereinbelow, and administered by any of the above-named routes of administration.
The MTD of CB suspension in pyrogen-free carboxymethyl cellulose(1%)/Tween -20 (2%) was 100 mg/kg SC, 50 mg/kg IP, and 10 mg/kg IV when administered to CD2F₁ mice. In DMSO, the MTD was 25 mg/kg IP, and less than 100 mg/kg SC, and in 33% ethanol, 10 mg/kg IV. At doses of 100 -150 mg/kg CB administered SC in CMC/Tw to CD2F₁ mice that had sustained challenge 24 hr with M109 tumor cells implanted SC, appearance of measurable tumor nodules were delayed by 66%.
The maximum tolerated dose (MTD) of CB (50 mg/kg CB) by intraperitoneal administration was determined by the following procedure. A solution of CB as isolated by Example 2 was obtained by sonication of the CB in DMSO (to make a 25 mg/kg solution of CB) for 2 minutes in an ultrasonic bath at 80-90 Hz power.
The above procedure was repeated for CB in CM-cellulose/Tween 20 (CMC/Tw) vehicle (0.1 ml administered).
The above procedures were repeated for 25 and 100 mg/kg CB in DMSO, and for 100 mg/kg CB in CMC/Tw.
The maximum tolerated dose (MTD) of CB (150 mg/kg, in CMC/Tw) by subcutaneous administration over the peritoneal wall was determined by the procedure of Example 8.
The maximum tolerated dose (MTD) of CB (5 mg/kg) by intravenous administration was determined by the procedure of Example 7. The CB was suspended in 0.1 ml 95% ethanol/0.85% NaCl (1:2 v/v), heated to 37°C and administered via tail vein within 5 minutes of mixing.
The above procedure was repeated using 0.1 ml CM-Cellulose/Tween 20.
The above procedure was repeated using 10, 20, 40, and 50 mg/kg dose of CB with the CM-Cellulose/Tween 20 vehicle, and 10, 20, and 40 mg/kg CB with EtOH/NaCl.

[2] = Tissue distribution of CB in vivo after IP bolus injection, HPLC analysis of tissue extracts; parameters: species or system mice; conditions: 50 mg/kg IP single bolus
Protocol: as §1
Livers of mice treated according to Examples 4, 5 and 6 were homogenized with a Brinkman polytron using 5.0 ml of methanol /g tissue. The homogenate was centrifuged at 5000g for 5 minutes. The supernatant was brought to 80% water using HPLC grade water and passed through Sep-Pak C-18 cartridges that had first been conditioned with 5.0 ml methanol, followed by 10.0 ml of distilled water. The cartridges were dried under vacuum and washed with 3.0 ml hexane (HPLC grade), and the CB recovered with 2.0 ml of EtOAc (HPLC grade). The elutes were evaporated under a stream of nitrogen and dissolved in 250 ul tetrohydrofuran (HPLC grade). Samples were filtered through a 0.45 um nylon syringe filter into a 50 ul sample loop. The samples were analyzed by HPLC, using a regular phase silica column, a solvent system of hexane:tetrahydrofuran (60:40), and analyzed at 230 nm. The lower limit of sensitivity was determined to be 1 ug per total extract since 20% was analyzed with a quantitative limit of 0.2 ug.

[3] = tested on: Madison 109 (M109) carcinoma; test: Madison 109 carcinoma tumor model in mice treated with a single bolus of CB; assay type: in vivo, CD2F₁ mice
Protocol: For SC tumors, growth was monitored by calculating tumor weight according to the methods of Johnson et al. (1975, Cancer Chemo. Rep., 59(4):697-705). For IP and IV-induced tumors, growth was determined by host survival. Metastases were determined at necropsy by fixation of the organ in Bouins solution according to standard procedure, and metastatic foci counted under a dissecting microscope (see Table 1).
Madison 109 (M109) carcinoma was maintained in Balb/c and CD2F₁ mice by serial passage of 20% tumor brei (approximately 1X10⁶ total cells) in mice every 12 days according to the techniques of Rose (1981, Cancer Treat. Rep., 65:299-312). The CD2F₁ were implanted with 0.2 ml M109 SC ventrally on the abdomen. Tumor brei were prepared by excising the tumor from the passage mouse, removing any necrotic areas, weighing the tumor, mincing it, and suspending the fragments in 0.1 ml 20% (v/v) penicillin/streptomycin (Gibco) and 0.85% (w/v) sterile sodium chloride solution (total 1.0 ml/g tumor), and dispersed by repeated aspiration and expulsion through a syringe. The suspension was then diluted to 20% with 0.85% sterile sodium chloride and 0.2 ml was injected SC. Viability of the tumor suspension was about 20%, as determined by the standard trypan blue exclusion test.
The above procedure was repeated, administering the M109 tumor brei IV 90.1 ml) through the tail vein, or IP (0.2 ml).
Mice (6) were subcutaneously implanted with 1X10⁵ tumor cells as isolated in Example 4 on Day 0, and drug treatment was given on Day 1. CB (100 mg/kg mouse, or 0.2 ml of 10.0 mg/ml CB, per 20 gm mouse), suspended in CMC/Tw was administered to mice.
Lower tumor weight was detected in all the treated groups as compared to controls, although this difference lessened with advancing stage of tumor growth. […] No effect on reducing tumor metastases in the liver or spleen was detected with SC administration of CB.

B16F10 tumor = test: Dose response against B16F10 tumor in mice, CB given peri-tumorally SC; assay type: in vivo
Protocol: CB (100 mg/kg) administered peri-tumorally delays the tumor appears from Day 7 to Day 18, when treatment is administered on Day 1.

[4] = tested on: P388 murine leukemia cells (drug-resistant line); test: cells; assay type: cell-based; conditions: Mus musculus
Protocol: ICs for cytochalasins and antineoplastic agents were determined by inoculating wells containing cultured cells with dilutions of the desired compound, and the resulting exposed cell viability determined at a fixed timepoint after exposure (i.e., 20 or 48 hours). The concentration of the compound that is found to inhibit 50% of the initial cells cultured is the IC50 of that compound with respect to those cells. The IC90 and IC100s can similarly be determined.
Inhibitory concentrations ("ICs") of ADR, CA, and CB on P388 murine leukemia cells (drug-resistant line) were determined as follows.
Cells (5 X 10⁴) were plated out in 200 uL of RPMI 1640 medium containing 10% calf serum. CB, CA, and ADR were added to wells as follows to determine inhibitory concentration as follows: 8 wells were inoculated with dilutions of CB: 0.00 uM CB, 1.00 uM CB, 2.00 uM CB, 4.00 uM CB, 10.00 uM CB, 20.00 uM, 40.00 uM CB, and 80.00 uM CB. […]
All wells were incubated at 37°C, in 5% CO₂ for 3 hours, after which time the plate was centrifuged at 600 X g for 5 minutes, the drug medium removed and replaced with 200 uL of fresh RPMI 1640 medium, containing 10% calf serum, centrifuged again at 600 X g, and cells refed and incubated for 45 hours at 37°C, in 5% CO₂. After the 45 hour incubation, the cells were analyzed for viability using the MTT reduction assay as described in Alley et al.

[5] = tested on: P388 murine leukemia cells (P388/ADR); test: P388/ADR cells in 24-well plates, 3 hours exposure, Coulter counting after 96 hours; assay type: cell-based; conditions: Mus musculus
Protocol: P388 murine leukemia cells (P388/ADR) selected for multi-drug resistance to doxorubicin and other natural product anti-tumor agents, provided by the National Institutes of Health, were seeded at 5 X 10⁴ cells/ml in 24-well microtiter plates, 2.0 ml per well, in RPMI 1640 medium with 10% fetal calf serum and 10 uM mercaptoethanol. The cells were allowed to equilibrate and divide overnight at 37°C, in 5% CO₂, then treated in duplicate wells with ADR at 2.5, 5, 10, and 20 uM. Other duplicate wells were treated with CB at 2.5, 5, 7.5, 10, and 20 uM. Duplicate wells also contained the above amounts of ADR and CB, which were added to the cells simultaneously. […] After 3 hours of incubation at 37°C, the cells from each well were transferred to sterile centrifuge tubes, and the wells washed with 2.0 ml of sterile medium to assure full cell transfer. The tubes were centrifuged at 600 x g for 5 minutes, and the drug-medium decanted and discarded. The cells were then resuspended in 2.0 ml of fresh medium and plated into 24-well plates, incubated at 37° C for 96 hours, and cell viability and growth after treatment determined by Coulter counting.

[6] = short-term exposure of about 2 hours; cited from earlier work
[7] = CB on Day 1 or when the nodule was detected

C=C1C(C)C2C(Cc3ccccc3)NC(=O)C23OC(=O)C=CC(O)CCCC(C)CC=CC3C1O (stereo not drawn) [CB, cytochalasin B]
toxicity in DMSO relative to CM-Cellulose/Tween 20 ([1]; IP administration (Example 8)): approximately twice as toxic
toxicity in DMSO relative to CM-Cellulose/Tween 20 ([1]; SC administration (Example 9)): approximately twice as toxic
MTD ([1]; ip, CB suspension in carboxymethyl cellulose(1%)/Tween-20 (2%), single bolus, CD2F₁ mice): 50 mg/kg
MTD ([1]; ip, in DMSO): 25 mg/kg
MTD ([1]; iv, CB suspension in carboxymethyl cellulose(1%)/Tween-20 (2%), single bolus, CD2F₁ mice): 10 mg/kg
MTD ([1]; iv, in 33% ethanol): 10 mg/kg
MTD ([1]; sc, CB suspension in carboxymethyl cellulose(1%)/Tween-20 (2%), single bolus, CD2F₁ mice): 100 mg/kg
MTD ([1]; sc, in DMSO): < 100 mg/kg
sensitivity to CB of CD2F₁ as compared to B6D2F₁ mice ([1]; single bolus dose): Slightly greater sensitivity
persistence in liver [2]: 72 h
time by which cleared from the spleen and pancreas [2]: ≤ 12 h
tissue distribution [2]: appears at the highest levels in liver, spleen, and pancreas
remaining CB that persists in liver for up to 72 hours ([2]; some CB metabolized within the first few minutes): 35%
lung tumor nodules (metastases) versus vehicle controls ([3]; 100 mg/kg CB SC at the time of tumor detection): fewer lung tumor nodules
delay of appearance of measurable tumor nodules ([3]; 100-150 mg/kg CB SC in CMC/Tw, CD2F₁ mice, 24 hr after SC M109 challenge): 66%
animals tumor-free by Day 50 [3, 7]: 33%
median survival time [3, 7]: increased median survival time
cytotoxic effects (life span) ([3]; IV tumor challenge, 50 mg/kg CB by the IP route): no cytotoxic effects were observed
tumor metastases in the liver or spleen ([3]; SC administration of CB): No effect
tumor growth rate ([3]; SC peri-tumorally on Day 1 or when a measurable nodule was observed (around Day 6)): significant decrease in tumor growth rate
effect on SC tumor ([3]; SC single bolus 24 hours after tumor challenge or when the tumor appeared (about day 6)): delay the appearance of measurable tumor nodules, to slow growth rate of the nodule to inhibit invasion, and to extend life span
day of tumor appearance (B16F10 tumor; CB 100 mg/kg peri-tumorally on Day 1, without treatment Day 7): 18 days
tumor nodule growth rate (B16F10 tumor; CB administered subcutaneously): measurable effect
IC50 [4]: 35 to 40 µM
IC50 [5]: 35 to 40 µM
non-cytotoxic concentration [6]: up to 100 ug/ml and ≤ 200 uM

COc1cccc2c1C(=O)c1c(O)c3c(c(O)c1C2=O)C[C@@](O)(C(=O)CO)C[C@@H]3O[C@H]1C[C@H](N)[C@H](O)[C@H](C)O1 [ADR, doxorubicin, reference compound]
IC50 ([4]; 3 hours exposure, viability by MTT after 45 hours, read-out: IC50): 3.5 µM
